System: D. immitis GA III (susceptible isolate)
Parameters: species or system Dirofilaria immitis
Settings: in vivo

## Milbemycin oxime [MBO]
  Number of GA III Worms: 0
po
  Percentage of GA III Worms: 0%

Source: patent publication US20230313318A1, “MICR[…] METHOD OF USE THEREOF” (priority 2022, published 2023)
